# Data taken from patent US4454120A, “Analgesic dipeptide amides and method of use and compositions thereof” (Sterling Drug Inc., priority 1982, dated 1984).
# Columns and labels:
# [1] = tested on: guinea pig ileum longitudinal muscle; test: Guinea pig ileum test (inhibition of electrically induced twitch); assay type: cell-based; conditions: ratio of IC50 of reference Met5-enkephalin (=100) to IC50 of test compound in the same preparation, averaged, usually N=4
# Experimental: Adult male guinea pigs (Charles River, Hartley strain) weighing 300-500 g. are decapitated, and the terminal ileum is exposed by reflecting the overlying cecum, severed at the ileocecal juncture, and removed while cutting the mesenteric attachments to avoid excessive traction on the tissue. The ileum (about 30 cm. in length) is transferred to a beaker containing warm modified Krebs-Henseleit solution (118 mM sodium chloride, 4.75 mM potassium chloride, 2.54 mM calcium chloride, 1.19 mM potassium dihydrogen phosphate, 1.2 mM magnesium sulfate, 25 mM sodium bicarbonate, 11 mM glucose, 20 μM choline chloride and 0.125 μM pyrilamine maleate). The terminal (aboral) portion (about 10 cm. in length) is discarded, and segments (3-4 cm. in length) are cut from the remainder and gently slid onto a glass rod (5-6 mm. in diameter) and arranged so that the meseneteric attachment is in a straight line. A cotton swab moistened in the solution is then carefully used to separate the longitudinal muscle from the underlying circular muscle. The longitudinal muscle and adhering myenteric plexus is then gently removed from the remaining tissue with forceps.
# Strips of this prepared longitudinal muscle are mounted in a double-jacketed organ bath (5 ml.) under tension (1.0 g.), connected to isometric transducers (Grass FT .03), bathed in the modified Krebs-Henseleit solution described above, aerated with oxygen-carbon dioxide (95:5) and maintained at 37° C.
# Stimulators (Grass S-44) are set to deliver repetitive monophasic square wave field stimulation (supramaximal voltage, 0.10 Hz., 0.25 msec. duration) through platinum ring electrodes at the top and bottom of the bath. Regular contractions of the muscle, which result from electrically-induced liberation of acetylcholine from postganglionic parasympathetic nerves, are recorded on a polygraph (Grass model 5). Following tissue equilibration (45-60 min.) and repeated washing (every 10 min.) an aqueous solution of a reference or test compound is added to the bath in a microliter volume (1.25-250 μl) and reductions in muscle twitch height are recorded. More compound can be added […] first washing the preparation.
# From the results a half-mazimal inhibitory concentration (IC50) value for the compound is computed by regression analysis of a linear plot of logarithm of concentration against percent of inhibition of twitch height (probits). The ratio of the IC50 value of a reference compound to that of a test compound tested in the same preparation is the molar potency ratio. Usually four preparations are tested simultaneously by the same person (N=4), and the resulting four molar potency ratios are averaged.
# The following results were obtained using the examples as test compounds and Met^5 -enkephalin as the reference compound.
# [2] = tested on: guinea pig ileum; conditions: cited from earlier work
# [3] = tested on: mouse vas deferens; conditions: cited from earlier work
# [4] = tested on: Male Swiss-Webster mice; test: Mouse acetylcholine writhing test; assay type: in vivo; conditions: for ED50: Mus musculus, sc, subcutaneous, approximate values
# Experimental: Male Swiss-Webster mice each weighing 18-24 g. are treated subcutaneously (10 ml./kg. injection volume) or orally with the test compound in an aqueous vehicle. Twenty minutes thereafter each mouse is injected intraperitoneally with acetylcholine (3.2 mg./kg.) in aqueous sodium chloride (0.9%). This dose of acetylcholine causes one or more characteristic writhes in the two minute period following injection in control mice which receive the aqueous vehicle not containing the test compound. […] Test compounds are screened at doses of 100 and 30 mg./kg. subcutaneously and 300 and 100 mg./kg. orally using 15 mice at each dose level. ED50 values for active compounds are estimated by probit analysis of quantal scores at four or more dose levels using 15 mice at each dose level.
# [5] = tested on: opiate receptor; conditions: rat brain membranes, relative to morphine; cited from earlier work
# [6] = tested on: rat; conditions: rat tail flick, relative to morphine, cited from earlier work
molecule,measurement,setting,value
L-tyrosyl-N-(3-phenylpropyl)-D-methioninamide S-oxide monohydrochloride sesquihydrate [Example 2],Average Molar Potency Ratio,[1],1180
"CSCC[C@H](C(=O)NCCCc1ccccc1)N(C)C(=O)[C@@H](N)Cc1ccc(O)cc1.Cl [Example 7, L-tyrosyl-N^2-methyl-N-(3-phenylpropyl)-D-methioninamide monohydrochloride]",Average Molar Potency Ratio,[1],260
C[C@@H](NC(=O)[C@@H](N)Cc1ccc(O)cc1)C(=O)NCCNCCc1ccccc1 [HTyrD-AlaNH(CH2)2 NH(CH2)2 Phenyl],potency relative to Met-enkephalin,[2],< 1%
same,potency relative to Met-enkephalin,[3],< 1%
Met^5 -enkephalin [reference compound],Average Molar Potency Ratio,[1],100
L-tyrosyl-N-(3-phenylpropyl)-D-serinamide hydrate (3:2) [Example 10],Average Molar Potency Ratio,[1],15
"Cl.NC(=O)CC[C@@H](NC(=O)[C@@H](N)Cc1ccc(O)cc1)C(=O)NCCCc1ccccc1.O [Example 9, L-tyrosyl-N^1-(3-phenylpropyl)-D-glutamamide monohydrochloride hydrate (4:3)]",Average Molar Potency Ratio,[1],47
"CSCC[C@@H](NC(=O)[C@@H](N)Cc1ccc(O)cc1)C(=O)N(C)CCCc1ccccc1.Cl [Example 3, L-tyrosyl-N-methyl-N-(3-phenylpropyl)-D-methioninamide monohydrochloride]",Average Molar Potency Ratio,[1],19
"CN(CCCc1ccccc1)C(=O)[C@@H](CC[S+](C)[O-])NC(=O)[C@@H](N)Cc1ccc(O)cc1.Cl.O (stereo partly drawn) [Example 4, L-tyrosyl-N-methyl-N-(3-phenylpropyl)-D-methioninamide S-oxide monohydrochloride monohydrate]",ED50,[4],> 30 mg/kg
same,Average Molar Potency Ratio,[1],5
C[C@@H](NC(=O)[C@@H](N)Cc1ccc(O)cc1)C(N)=O [H-Tyr-D-Ala-NH2],times less affinity than morphine,[5],830 times
same,"times less potent than morphine, intravenously",[6]; intravenous,greater than 10 times
same,"times less potent than morphine, intraventricularly",[6]; intraventricular,200 times
N-methyl-L-tyrosyl-N-(3-phenylpropyl)-D-methioninamide S-oxide monohydrochloride hemihydrate [Example 6],Average Molar Potency Ratio,[1],360
"CN[C@@H](Cc1ccc(O)cc1)C(=O)N[C@@H](CCSC)C(=O)NCCCc1ccccc1.Cl.O [Example 5, N-methyl-L-tyrosyl-N-(3-phenylpropyl)-L-methioninamide monohydrochloride hydrate (4:1)]",95% confidence limits of subcutaneous ED50,[4],5.0 to 12 mg/kg
same,subcutaneous ED50,"[4]; acetylcholine 3.2 mg./kg. i.p. 20 min after the compound, probit analysis",8.5 mg/kg
same,Average Molar Potency Ratio,[1],180
"CSCC[C@@H](NC(=O)[C@@H](N)Cc1ccc(O)cc1)C(=O)NCCCc1ccccc1.Cl.O [Example 1, L-tyrosyl-N-(3-phenylpropyl)-D-methioninamide monohydrochloride monohydrate]",ED50,[4],> 30 mg/kg
same,Average Molar Potency Ratio,[1],279
"CN(C(=O)[C@@H](N)Cc1ccc(O)cc1)[C@H](CC[S+](C)[O-])C(=O)NCCCc1ccccc1.Cl.O (stereo partly drawn) [Example 8, L-tyrosyl-N^2-methyl-N-(3-phenylpropyl)-D-methioninamide S-oxide monhydrochloride monohydrate]",Average Molar Potency Ratio,[1],650
